Results as given in patent publication US20210045385A1, “PYRIDAZINONE-SUBSTITUTED KETOXIMES AS HERBICIDES” (FMC Corporation, priority 2018, published 2021).

Tests used:
Format in all cases: in vivo
[1] = test system: ragweed (common ragweed, Ambrosia artemisiifolia); test: Test C preemergence, visual plant response rating
Summary of the method: (§1)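 Seeds sown in a loam–sand blend got a directed preemergence soil spray; postemergence plants (2–10 cm, one- to two-leaf stage) were sprayed with compound in a non-phytotoxic solvent plus surfactant. Injury was scored visually against untreated controls after about 10 d in a greenhouse on a 0–100 scale (100 = complete control).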

[2] = test system: pigweed (Amaranthus retroflexus); test: Test C preemergence, visual plant response rating
Summary of the method: as §1

[3] = test system: Italian ryegrass (Lolium mutiflorum); test: Test C preemergence, visual plant response rating
Summary of the method: as §1

[4] = test system: barnyardgrass (Echinochloa crus-galli); test: Test C preemergence, visual plant response rating
Summary of the method: as §1

[5] = test system: foxtail, giant (giant foxtail, Setaria faberi); test: Test C preemergence, visual plant response rating
Summary of the method: as §1

kochia (Bassia scoparia) [6] = test: Test C preemergence, visual plant response rating
Summary of the method: as §1

corn (Zea mays) = test: Test C postemergence, visual plant response rating
Summary of the method: as §1

[7] = test system: ragweed (common ragweed, Ambrosia artemisiifolia); test: Test C postemergence, visual plant response rating
Summary of the method: as §1

[8] = test system: galium (catchweed bedstraw, Galium aparine); test: Test C postemergence, visual plant response rating
Summary of the method: as §1

[9] = test system: wheat (Triticum aestivum); test: Test C postemergence, visual plant response rating
Summary of the method: as §1

[10] = test system: pigweed (Amaranthus retroflexus); test: Test C postemergence, visual plant response rating
Summary of the method: as §1

[11] = test system: Italian ryegrass (Lolium mutiflorum); test: Test C postemergence, visual plant response rating
Summary of the method: as §1

[12] = test system: barnyardgrass (Echinochloa crus-galli); test: Test C postemergence, visual plant response rating
Summary of the method: as §1

[13] = test system: foxtail, giant (giant foxtail, Setaria faberi); test: Test C postemergence, visual plant response rating
Summary of the method: as §1

[14] = test system: blackgrass (Alopecurus myosuroides); test: Test C postemergence, visual plant response rating
Summary of the method: as §1

kochia (Bassia scoparia) [15] = test: Test C postemergence, visual plant response rating
Summary of the method: as §1

rice (Oryza sativa) = test: Test D flooded paddy test, visual plant response rating; details: 250 g ai/ha, scale 0 to 100 (0 no effect, 100 complete control), 13 to 15 d
Summary of the method: (§2)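 Greenhouse paddy assay scored on a 0–100 visual scale after 13 to 15 d, where 100 means complete control and a dash marks no result; dosing was into 3 cm floodwater over 2-leaf plants.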

[16] = test system: duck salad (Heteranthera limosa); test: as above; details: 250 g ai/ha, scale 0 to 100 (0 no effect, 100 complete control), 13 to 15 d
Summary of the method: as §2

[17] = test system: sedge umbrella (small-flower umbrella sedge, Cyperus difformis); test: as above; details: 250 g ai/ha, scale 0 to 100 (0 no effect, 100 complete control), 13 to 15 d
Summary of the method: as §2

[18] = test system: barnyardgrass (Echinochloa crus-galli); test: as above; details: 250 g ai/ha, scale 0 to 100 (0 no effect, 100 complete control), 13 to 15 d
Summary of the method: as §2

[19] = Test C, 31 g ai/ha, 0 is no effect, 100 is complete control
[20] = Test C, 125 g ai/ha, 0 is no effect, 100 is complete control
[21] = Test C, postemergence, 125 g ai/ha

Row | Structure (SMILES) | Ragweed plant response rating (0 to 100 scale) [1, 19] | Pigweed plant response rating (0 to 100 scale) [2, 19] | Ryegrass, Italian plant response rating (0 to 100 scale) [3, 19] | Barnyardgrass plant response rating (0 to 100 scale) [4, 19] | Foxtail, Giant plant response rating (0 to 100 scale) [5, 19] | Kochia plant response rating (0 to 100 scale) (kochia (Bassia scoparia) [6]; [19]) | Corn plant response rating (0 to 100 scale) (corn (Zea mays); Postemergence, 31 g ai/ha) | Corn plant response rating (0 to 100 scale) (corn (Zea mays); [21]) | Ragweed plant response rating (0 to 100 scale) ([7]; Postemergence, 31 g ai/ha) | Ragweed plant response rating (0 to 100 scale) [7, 21] | Galium plant response rating (0 to 100 scale) ([8]; Postemergence, 31 g ai/ha) | Galium plant response rating (0 to 100 scale) [8, 21] | Wheat plant response rating (0 to 100 scale) ([9]; Postemergence, 31 g ai/ha) | Wheat plant response rating (0 to 100 scale) [9, 21] | Pigweed plant response rating (0 to 100 scale) ([10]; Postemergence, 31 g ai/ha) | Pigweed plant response rating (0 to 100 scale) [10, 21] | Ryegrass, Italian plant response rating (0 to 100 scale) ([11]; Postemergence, 31 g ai/ha) | Ryegrass, Italian plant response rating (0 to 100 scale) [11, 21] | Barnyardgrass plant response rating (0 to 100 scale) ([12]; Postemergence, 31 g ai/ha) | Barnyardgrass plant response rating (0 to 100 scale) [12, 21] | further results
1 | CON=C(c1cccc(OCC(F)(F)F)c1)c1c(O)c(C)nn(C)c1=O [Compound 198] | 0 | 0 | 0 | 0 | 0 | 0 | 0 | 20 | 0 | 0 | 0 | 20 | 0 | 0 | 0 | 10 | 0 | 60 | 20 | 80 | Ragweed plant response rating (0 to 100 scale) [1, 20]: 0; Pigweed plant response rating (0 to 100 scale) [2, 20]: 0; Ryegrass, Italian plant response rating (0 to 100 scale) [3, 20]: 70; Barnyardgrass plant response rating (0 to 100 scale) [4, 20]: 40; Foxtail, Giant plant response rating (0 to 100 scale) [5, 20]: 70; Kochia plant response rating (0 to 100 scale) (kochia (Bassia scoparia) [6]; [20]): 0; Foxtail, Giant plant response rating (0 to 100 scale) ([13]; Postemergence, 31 g ai/ha): 20; Foxtail, Giant plant response rating (0 to 100 scale) [13, 21]: 70; Blackgrass plant response rating (0 to 100 scale) ([14]; Postemergence, 31 g ai/ha): 0; Blackgrass plant response rating (0 to 100 scale) [14, 21]: 40; Kochia plant response rating (0 to 100 scale) (kochia (Bassia scoparia) [15]; Postemergence, 31 g ai/ha): 0; Kochia plant response rating (0 to 100 scale) (kochia (Bassia scoparia) [15]; [21]): 0; Plant response rating, Rice (Flood) (rice (Oryza sativa)): 0; Plant response rating, Ducksalad (Flood) [16]: 0; Plant response rating, Sedge, Umbrella (Flood) [17]: 0; Plant response rating, Barnyardgrass (Flood) [18]: 0
2 | C#CCO/N=C(\c1ccc(F)c(Br)c1)c1c(O)c(C)nn(C)c1=O [Compound 164] | 0 | 70 | 0 | 0 | 10 | 0 | 10 | 30 | 20 | 50 | 60 | 70 | 20 | 80 | 50 | 70 | 0 | 70 | 30 | 60 | Ragweed plant response rating (0 to 100 scale) ([1]; 125 g ai/ha): 30; Pigweed plant response rating (0 to 100 scale) ([2]; 125 g ai/ha): 90; Ryegrass, Italian plant response rating (0 to 100 scale) ([3]; 125 g ai/ha): 30; Barnyardgrass plant response rating (0 to 100 scale) ([4]; 125 g ai/ha): 50; Foxtail, Giant plant response rating (0 to 100 scale) ([5]; 125 g ai/ha): 50; Kochia plant response rating (0 to 100 scale) (kochia (Bassia scoparia) [6]; 125 g ai/ha): 50; Foxtail, Giant plant response rating (0 to 100 scale) ([13]; Postemergence, 31 g ai/ha): 10; Foxtail, Giant plant response rating (0 to 100 scale) [13, 21]: 70; Blackgrass plant response rating (0 to 100 scale) ([14]; Postemergence, 31 g ai/ha): 30; Blackgrass plant response rating (0 to 100 scale) [14, 21]: 50; Kochia plant response rating (0 to 100 scale) (kochia (Bassia scoparia) [15]; Postemergence, 31 g ai/ha): 30; Kochia plant response rating (0 to 100 scale) (kochia (Bassia scoparia) [15]; [21]): 70; Plant response rating, Rice (Flood) (rice (Oryza sativa)): 0; Plant response rating, Ducksalad (Flood) [16]: 0; Plant response rating, Sedge, Umbrella (Flood) [17]: 0; Plant response rating, Barnyardgrass (Flood) [18]: 0
3 | C#CCO/N=C(/c1cccc(/C=C/Cl)c1)c1c(O)c(C)nn(C)c1=O [Compound 253] | 0 | 0 | 0 | 0 | 0 | 0 | 0 | 0 | 30 | 40 | 30 | 50 | 0 | 30 | 50 | 70 | 10 | 60 | 10 | 40 | Ragweed plant response rating (0 to 100 scale) [1, 20]: 0; Pigweed plant response rating (0 to 100 scale) [2, 20]: 80; Ryegrass, Italian plant response rating (0 to 100 scale) [3, 20]: 30; Barnyardgrass plant response rating (0 to 100 scale) [4, 20]: 0; Foxtail, Giant plant response rating (0 to 100 scale) [5, 20]: 10; Kochia plant response rating (0 to 100 scale) (kochia (Bassia scoparia) [6]; [20]): 0; Foxtail, Giant plant response rating (0 to 100 scale) ([13]; Postemergence, 31 g ai/ha): 20; Foxtail, Giant plant response rating (0 to 100 scale) [13, 21]: 50; Blackgrass plant response rating (0 to 100 scale) ([14]; Postemergence, 31 g ai/ha): 20; Blackgrass plant response rating (0 to 100 scale) [14, 21]: 60; Kochia plant response rating (0 to 100 scale) (kochia (Bassia scoparia) [15]; Postemergence, 31 g ai/ha): 20; Kochia plant response rating (0 to 100 scale) (kochia (Bassia scoparia) [15]; [21]): 60; Plant response rating, Rice (Flood) (rice (Oryza sativa)): 0; Plant response rating, Ducksalad (Flood) [16]: 0; Plant response rating, Sedge, Umbrella (Flood) [17]: 0; Plant response rating, Barnyardgrass (Flood) [18]: 0
